Data taken from patent US9884063B2, “Amido-substituted azole compounds” (Bayer Pharma Aktiengesellschaft, priority 2014, dated 2018).

Assays:
[1] = system: HEK293 FOP control reporter cell line; test: HEK293 FOP Assay (FOP control vector luciferase reporter); format: cell-based; conditions: Homo sapiens; HEK293 FOP control reporter cell line, 16 hours incubation, compound dilution series 50 μM to 15 nM
Procedure: In a parallel approach, HEK293 cells were cotransfected with the FOP control vector and pcDNA3. The FOP vector is identical to the TOP construct, but it contains instead of functional TCF elements a randomized, non-functional sequence. For this transfection a stable transfected cell line was generated as well, based on selection with Geneticin (1 mg/ml).
In preparation of the assay, the two cell lines were plated 24 hrs before beginning the test at 10000 cells per well in a 384 micro titre plate (MTP) in 30 μl growth medium. […] The recombinant human Wnt-3a was thereby applied between 2500 and 5 ng/ml in two-fold dilution steps.
Selective inhibitory activity for small molecules on the wildtype Wnt pathway was determined after parallel incubation of both (TOP and FOP) HEK293 reporter cell lines with a compound dilution series from 50 μM to 15 nM in steps of 3.16-fold dilutions in CAFTY buffer (130 mM sodium chloride, 5 mM potassium chloride, 20 mM HEPES, 1 mM magnesium chloride, 5 mM sodium bicarbonate, pH 7.4) containing 2 mM Ca^2+ and 0.01% BSA.
The compounds were thereby serially prediluted in 100% DMSO and thereafter 50 fold into the CAFTY compound dilution buffer (described above).

[2] = system: wildtype Wnt signaling cascade; test: HEK293 TOP Assay (Super TopFlash luciferase reporter, Wnt-3a stimulated); format: cell-based; conditions: Homo sapiens, HEK293, 16 h, HEK293 TOP reporter cell line, Wnt-3a at EC50, 16 hours incubation, compound dilution series 50 μM to 15 nM
Method in brief: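 Compounds (50 μM down to 15 nM, 3.16-fold steps, in CAFTY buffer pH 7.4, 2 mM Ca2+, 0.01% BSA) tested in parallel on TOP and FOP HEK293 reporter lines to define selective wildtype Wnt inhibition. Pathway driven by recombinant human Wnt-3a applied at 2500–5 ng/ml in two-fold dilutions.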

SMILES	IC50 [2] [µM]	IC50 [1] [µM]
CC1CCN(CC(C)(C)NC(=O)c2[nH]cnc2C(=O)Nc2ccc(NC(=O)c3ccc(F)cc3)cc2)CC1 [Example 175, N^4-{4-[(4-fluorobenzoyl)amino]phenyl}-N^5-[2-methyl-1-(4-methylpiperidin-1-yl)propan-2-yl]-1H-imidazole-4,5-dicarboxamide]	3.5	27
CN1CCN(C(C)(C)CNC(=O)c2[nH]cnc2C(=O)Nc2ccc(NC(=O)c3ccc(F)cc3)cc2)CC1 [Example 188, N^4-{4-[(4-fluorobenzoyl)amino]phenyl}-N^5-[2-methyl-2-(4-methylpiperazin-1-yl)propyl]-1H-imidazole-4,5-dicarboxamide]	5.9	15
O=C(Nc1ccc(NC(=O)c2nc[nH]c2C(=O)NCCCCN2CCCCC2)cc1)c1ccc(F)cc1 [Example 201, N^4-{4-[(4-fluorobenzoyl)amino]phenyl}-N^5-[4-(piperidin-1-yl)butyl]-1H-imidazole-4,5-dicarboxamide]	4.5	0.03
CN1CCN(CC(C)(C)NC(=O)c2[nH]cnc2C(=O)Nc2ccc(NC(=O)c3ccccc3Cl)cc2)CC1 [Example 203, N^4-{4-[(2-chlorobenzoyl)amino]phenyl}-N^5-[2-methyl-1-(4-methylpiperazin-1-yl)propan-2-yl]-1H-imidazole-4,5-dicarboxamide]	3.05	28
CNC(=O)c1nc[nH]c1C(=O)Nc1ccc(NC(=O)c2cccc(C(F)(F)F)c2)cc1 [Example 314, N^4-methyl-N^5-(4-{[3-(trifluoromethyl)benzoyl]amino}phenyl)-1H-imidazole-4,5-dicarboxamide]	6.9	24
CNC(=O)c1nc[nH]c1C(=O)Nc1ccc(NC(=O)c2ccc(N(C)C)cc2)cc1 [Example 315, N^5-(4-{[4-(dimethylamino)benzoyl]amino}phenyl)-N^4-methyl-1H-imidazole-4,5-dicarboxamide]	14	41
CNC(=O)c1nc[nH]c1C(=O)Nc1ccc(NC(=O)c2cccc(F)c2F)cc1 [Example 319, N^5-{4-[(2,3-difluorobenzoyl)amino]phenyl}-N^4-methyl-1H-imidazole-4,5-dicarboxamide]	8.9	37
CNC(=O)c1nc[nH]c1C(=O)Nc1ccc(NC(=O)c2cccc(Cl)c2)cc1 [Example 325, N^5-{4-[(3-chlorobenzoyl)amino]phenyl}-N^4-methyl-1H-imidazole-4,5-dicarboxamide]	4.9	10
CNC(=O)c1nc[nH]c1C(=O)Nc1ccc(NC(=O)c2cc(Cl)cc(Cl)c2)cc1 [Example 327, N^5-{4-[(3,5-dichlorobenzoyl)amino]phenyl}-N^4-methyl-1H-imidazole-4,5-dicarboxamide]	39.5	37
CNC(=O)c1nc[nH]c1C(=O)Nc1ccc(NC(=O)c2cccc(Cl)c2C)cc1 [Example 341, N^5-{4-[(3-chloro-2-methylbenzoyl)amino]phenyl}-N^4-methyl-1H-imidazole-4,5-dicarboxamide]	2.65	45

Stronger by IC50 [2], values ahead:

IC50 [2] [µM]	SMILES	IC50 [1] [µM]
1.45	O=C(Nc1ccc(NC(=O)c2nc[nH]c2C(=O)NCCN2CCCC(O)C2)cc1)c1ccc(F)cc1 (stereo not drawn) [Example 167, N^4-{4-[(4-fluorobenzoyl)amino]phenyl}-N^5-[2-(3-hydroxypiperidin-1-yl)ethyl]-1H-imidazole-4,5-dicarboxamide]	44
0.63	CN1CCN(NC(=O)c2[nH]cnc2C(=O)Nc2ccc(NC(=O)c3ccc(F)cc3Cl)cc2)CC1 [Example 177, N^4-{4-[(2-chloro-4-fluorobenzoyl)amino]phenyl}-N^5-(4-methylpiperazin-1-yl)-1H-imidazole-4,5-dicarboxamide]	17
0.68	CC(CNC(=O)c1[nH]cnc1C(=O)Nc1ccc(NC(=O)c2ccc(F)cc2)cc1)N1CCCCC1 (stereo not drawn) [Example 183, N^4-{4-[(4-fluorobenzoyl)amino]phenyl}-N^5-[2-(piperidin-1-yl)propyl]-1H-imidazole-4,5-dicarboxamide]	28
0.42	CC(CNC(=O)c1[nH]cnc1C(=O)Nc1ccc(NC(=O)c2ccccc2Cl)cc1)N1CCN(C)CC1 (stereo not drawn) [Example 186, N^4-{4-[(2-chlorobenzoyl)amino]phenyl}-N^5-[2-(4-methylpiperazin-1-yl)propyl]-1H-imidazole-4,5-dicarboxamide]	28
0.41	CN1CCN(CC(C)(C)NC(=O)c2[nH]cnc2C(=O)Nc2ccc(NC(=O)c3ccc(F)cc3Cl)cc2)CC1 [Example 194, N^4-{4-[(2-chloro-4-fluorobenzoyl)amino]phenyl}-N^5-[2-methyl-1-(4-methylpiperazin-1-yl)propan-2-yl]-1H-imidazole-4,5-dicarboxamide]	2.3
1.01	CN1CCN(CC(C)(C)NC(=O)c2[nH]cnc2C(=O)Nc2ccc(NC(=O)c3ccc(F)cc3)cc2)CC1 [Example 195, N^4-{4-[(4-fluorobenzoyl)amino]phenyl}-N^5-[2-methyl-1-(4-methylpiperazin-1-yl)propan-2-yl]-1H-imidazole-4,5-dicarboxamide]	12
1.6	CN1CCN(C(C)(C)CNC(=O)c2[nH]cnc2C(=O)Nc2ccc(NC(=O)c3ccccc3Cl)cc2)CC1 [Example 202, N^4-{4-[(2-chlorobenzoyl)amino]phenyl}-N^5-[2-methyl-2-(4-methylpiperazin-1-yl)propyl]-1H-imidazole-4,5-dicarboxamide]	9.8
0.77	CC1CCCN(CCNC(=O)c2[nH]cnc2C(=O)Nc2ccc(NC(=O)c3ccc(F)cc3)cc2)C1 (stereo not drawn) [Example 211, N^4-{4-[(4-fluorobenzoyl)amino]phenyl}-N^5-[2-(3-methylpiperidin-1-yl)ethyl]-1H-imidazole-4,5-dicarboxamide]	24
0.47	O=C(Nc1ccc(NC(=O)c2nc[nH]c2C(=O)NCCCN2CCC(O)CC2)cc1)c1ccc(F)cc1Cl [Example 275, N^4-{4-[(2-chloro-4-fluorobenzoyl)amino]phenyl}-N^5-[3-(4-hydroxypiperidin-1-yl)propyl]-1H-imidazole-4,5-dicarboxamide]	9.6
0.74	O=C(Nc1ccc(NC(=O)c2nc[nH]c2C(=O)NCCCN2CCCC2=O)cc1)c1ccc(F)cc1Cl [Example 299, N^4-{4-[(2-chloro-4-fluorobenzoyl)amino]phenyl}-N^5-[3-(2-oxopyrrolidin-1-yl)-propyl]-1H-imidazole-4,5-dicarboxamide]	43
0.56	CC1CN(CCNC(=O)c2[nH]cnc2C(=O)Nc2ccc(NC(=O)c3ccccc3Cl)cc2)CC(C)O1 (stereo not drawn) [Example 300, N^4-{4-[(2-chlorobenzoyl)amino]phenyl}-N^5-[2-(2,6-dimethylmorpholin-4-yl)-ethyl]-1H-imidazole-4,5-dicarboxamide]	31
1.06	CN1CCN(NC(=O)c2[nH]cnc2C(=O)Nc2ccc(NC(=O)c3ccccc3Cl)cc2)CC1 [Example 302, N^4-{4-[(2-chlorobenzoyl)amino]phenyl}-N^5-(4-methylpiperazin-1-yl)-1H-imidazole-4,5-dicarboxamide]	26
1.08	CNC(=O)c1nc[nH]c1C(=O)Nc1ccc(NC(=O)c2cc(C)ccc2C)cc1 [Example 307, N^5-{4-[(2,5-dimethylbenzoyl)amino]phenyl}-N^4-methyl-1H-imidazole-4,5-dicarboxamide]	18
0.47	CCN(CC)CCCC(C)NC(=O)c1nc[nH]c1C(=O)Nc1ccc(NC(=O)c2ccc(F)cc2Cl)cc1 (stereo not drawn) [Example 380, N^5-{4-[(2-chloro-4-fluorobenzoyl)amino]phenyl}-N^4-[5-(diethylamino)pentan-2-yl]-1H-imidazole-4,5-dicarboxamide]	24
